Measured values published in paper PMC5218480 (PLoS ONE, 2017).

Test system: MV-4-11 cells
Assay: Gene expression microarray analysis (Affymetrix PrimeView) and GSEA
Assay type: cell-based, human
Parameters: RFU PODN (11730768_x_at) / Fold change /veh PODN (11730768_x_at) / RFU LINC00158 (11744669_a_at) / Fold change /veh LINC00158 (11744669_a_at) / RFU DUSP10 (11751237_a_at) / Fold change /veh DUSP10 (11751237_a_at) / RFU ID3 (11757404_x_at) / Fold change /veh ID3 (11757404_x_at) / RFU PLEKHG5 (11737974_s_at) / Fold change /veh PLEKHG5 (11737974_s_at) / RFU LRRC4B (11730491_at) / Fold change /veh LRRC4B (11730491_at) / RFU GIMAP4 (11747438_a_at) / Fold change /veh GIMAP4 (11747438_a_at) / RFU KRT8 (11758183_x_at) / Fold change /veh KRT8 (11758183_x_at) / RFU CNN1 (11734310_a_at) / Fold change /veh CNN1 (11734310_a_at) / RFU VPS37D (11726825_at) / Fold change /veh VPS37D (11726825_at) / RFU C10orf10 (11716522_x_at) / Fold change /veh C10orf10 (11716522_x_at) / RFU KIR2DL2 /// KIR2DL4 /// KIR2DL5A /// KIR2DL5B /// KIR2DS1 /// KIR2DS2 /// KIR2DS3 /// KIR2DS4 /// KIR3DL3 /// KIR3DL3 /// KIR3DS1 (11738374_at) / Fold change /veh KIR2DL2 /// KIR2DL4 /// KIR2DL5A /// KIR2DL5B /// KIR2DS1 /// KIR2DS2 /// KIR2DS3 /// KIR2DS4 /// KIR3DL3 /// KIR3DL3 /// KIR3DS1 (11738374_at) / RFU C1QL1 (11718748_at) / Fold change /veh C1QL1 (11718748_at) / RFU TMPRSS4 (11747572_a_at) / Fold change /veh TMPRSS4 (11747572_a_at) / RFU HAMP (11756126_x_at) / Fold change /veh HAMP (11756126_x_at) / RFU RNFT2 (11725882_a_at) / Fold change /veh RNFT2 (11725882_a_at) / RFU NR4A2 (11747474_a_at) / Fold change /veh NR4A2 (11747474_a_at) / RFU ABCC12 (11746883_a_at) / Fold change /veh ABCC12 (11746883_a_at) / RFU TMEM136 (11760407_x_at) / Fold change /veh TMEM136 (11760407_x_at) / RFU CLDN22 /// WWC2 (11732394_at) / Fold change /veh CLDN22 /// WWC2 (11732394_at) / RFU HLA-DPB1 (11760878_x_at) / Fold change /veh HLA-DPB1 (11760878_x_at) / RFU SPINT1 (11716480_a_at) / Fold change /veh SPINT1 (11716480_a_at) / RFU GAP43 (11754022_s_at) / Fold change /veh GAP43 (11754022_s_at) / RFU A4GNT (11735810_at) / Fold change /veh A4GNT (11735810_at) / RFU PRB3 (11715151_x_at) / Fold change /veh PRB3 (11715151_x_at) / RFU TUBB4B (11761932_at) / Fold change /veh TUBB4B (11761932_at) / RFU CAPN14 (11732068_a_at) / Fold change /veh CAPN14 (11732068_a_at) / RFU TMCC2 (11721928_a_at) / Fold change /veh TMCC2 (11721928_a_at) / RFU IRGQ (11745062_a_at) / Fold change /veh IRGQ (11745062_a_at) / RFU FAM174B (11720279_a_at) / Fold change /veh FAM174B (11720279_a_at) / RFU TMPRSS4 (11748680_a_at) / Fold change /veh TMPRSS4 (11748680_a_at) / RFU FAM212B (11763350_a_at) / Fold change /veh FAM212B (11763350_a_at) / RFU PLEKHG5 (11743358_a_at) / Fold change /veh PLEKHG5 (11743358_a_at) / RFU ZSCAN30 (11745921_a_at) / Fold change /veh ZSCAN30 (11745921_a_at) / RFU CMKLR1 (11741424_a_at) / Fold change /veh CMKLR1 (11741424_a_at) / RFU LOC101060620 /// MAPK8IP1 (11723275_at) / Fold change /veh LOC101060620 /// MAPK8IP1 (11723275_at) / RFU SPTSSB (11747773_x_at) / Fold change /veh SPTSSB (11747773_x_at) / RFU PRSS12 (11739890_at) / Fold change /veh PRSS12 (11739890_at) / RFU BIN1 (11741810_x_at) / Fold change /veh BIN1 (11741810_x_at) / RFU WNT11 (11732464_a_at) / Fold change /veh WNT11 (11732464_a_at) / RFU C10orf10 (11716521_a_at) / Fold change /veh C10orf10 (11716521_a_at) / RFU C5orf56 (11738089_at) / Fold change /veh C5orf56 (11738089_at) / RFU CYB561 (11721691_x_at) / Fold change /veh CYB561 (11721691_x_at) / RFU ANKRD19P (11752326_a_at) / Fold change /veh ANKRD19P (11752326_a_at) / RFU OR2T12 /// OR2T33 /// OR2T8 (11738714_s_at) / Fold change /veh OR2T12 /// OR2T33 /// OR2T8 (11738714_s_at) / RFU VCAN (11748164_a_at) / Fold change /veh VCAN (11748164_a_at) / RFU JSRP1 (11732532_at) / Fold change /veh JSRP1 (11732532_at) / RFU KRTAP10-11 (11738290_x_at) / Fold change /veh KRTAP10-11 (11738290_x_at) / RFU MYO3A (11730013_a_at) / Fold change /veh MYO3A (11730013_a_at) / RFU EBF3 (11725865_a_at) / Fold change /veh EBF3 (11725865_a_at) / RFU CAMK2N1 (11719241_x_at) / Fold change /veh CAMK2N1 (11719241_x_at) / RFU C5orf56 (11738088_a_at) / Fold change /veh C5orf56 (11738088_a_at) / RFU OLFML3 (11715873_a_at) / Fold change /veh OLFML3 (11715873_a_at) / RFU LOC100653217 /// NTM (11731650_a_at) / Fold change /veh LOC100653217 /// NTM (11731650_a_at) / RFU MAPK11 (11762145_a_at) / Fold change /veh MAPK11 (11762145_a_at) / RFU FIZ1 (11724087_x_at) / Fold change /veh FIZ1 (11724087_x_at) / RFU OASL (11726364_x_at) / Fold change /veh OASL (11726364_x_at) / RFU SOX15 (11748057_x_at) / Fold change /veh SOX15 (11748057_x_at) / RFU CD79A (11719716_a_at) / Fold change /veh CD79A (11719716_a_at) / RFU HIST1H1D (11736915_at) / Fold change /veh HIST1H1D (11736915_at) / RFU CASKIN2 (11723855_a_at) / Fold change /veh CASKIN2 (11723855_a_at) / RFU LOC730098 (11760151_x_at) / Fold change /veh LOC730098 (11760151_x_at) / RFU OR4N2 (11742367_at) / Fold change /veh OR4N2 (11742367_at) / RFU PRRT2 (11749266_a_at) / Fold change /veh PRRT2 (11749266_a_at) / RFU SNX32 (11753110_a_at) / Fold change /veh SNX32 (11753110_a_at) / RFU CDHR5 (11726645_a_at) / Fold change /veh CDHR5 (11726645_a_at) / RFU RCAN1 (11760418_a_at) / Fold change /veh RCAN1 (11760418_a_at) / RFU FAM167A (11723789_a_at) / Fold change /veh FAM167A (11723789_a_at) / RFU FAM26E (11764081_at) / Fold change /veh FAM26E (11764081_at) / RFU ISYNA1 (11749810_s_at) / Fold change /veh ISYNA1 (11749810_s_at) / RFU ACY1 (11761880_at) / Fold change /veh ACY1 (11761880_at) / RFU 11764098_at / Fold change /veh 11764098_at / RFU SAMD14 (11745864_x_at) / Fold change /veh SAMD14 (11745864_x_at) / RFU NPB (11741838_a_at) / Fold change /veh NPB (11741838_a_at) / RFU TMPRSS6 (11731388_a_at) / Fold change /veh TMPRSS6 (11731388_a_at) / RFU KRTAP10-2 (11738614_at) / Fold change /veh KRTAP10-2 (11738614_at) / RFU ARHGAP8 /// PRR5-ARHGAP8 (11727945_x_at) / Fold change /veh ARHGAP8 /// PRR5-ARHGAP8 (11727945_x_at) / RFU KRTAP5-7 /// NADSYN1 (11734609_at) / Fold change /veh KRTAP5-7 /// NADSYN1 (11734609_at) / RFU RASL12 (11751679_a_at) / Fold change /veh RASL12 (11751679_a_at) / RFU CDKN2B (11736163_a_at) / Fold change /veh CDKN2B (11736163_a_at) / RFU PRF1 (11729649_at) / Fold change /veh PRF1 (11729649_at) / RFU, ZNF638 /// ZNF638-IT1 / Fold change vs veh, ZNF638 /// ZNF638-IT1 / RFU, PANK3 / Fold change vs veh, PANK3 / RFU, SH3YL1 / Fold change vs veh, SH3YL1 / RFU, ZEB2 / Fold change vs veh, ZEB2 / RFU, NRIP1 / Fold change vs veh, NRIP1 / RFU, PTTG1IP / Fold change vs veh, PTTG1IP / RFU, CAPN2 / Fold change vs veh, CAPN2 / RFU, MED14 / Fold change vs veh, MED14 / RFU, SNORA58 / Fold change vs veh, SNORA58 / RFU, C1orf63 / Fold change vs veh, C1orf63 / RFU, LRRFIP1 / Fold change vs veh, LRRFIP1 / RFU, NDUFAF7 / Fold change vs veh, NDUFAF7 / RFU, SLC12A2 / Fold change vs veh, SLC12A2 / RFU, IBTK / Fold change vs veh, IBTK / RFU, ESF1 / Fold change vs veh, ESF1 / Fold change vs veh, TMEM50B / RFU, TAOK1 / Fold change vs veh, TAOK1 / RFU, ACBD3 / Fold change vs veh, ACBD3 / RFU, TMA16 / Fold change vs veh, TMA16 / RFU, RWDD3 / Fold change vs veh, RWDD3 / RFU, BCAT1 / Fold change vs veh, BCAT1 / RFU, EDEM3 / Fold change vs veh, EDEM3 / RFU, TMEM33 / Fold change vs veh, TMEM33 / RFU, WDR75 / Fold change vs veh, WDR75 / RFU, AHCTF1 / Fold change vs veh, AHCTF1 / RFU, TFRC / Fold change vs veh, TFRC / RFU, ZDHHC17 / Fold change vs veh, ZDHHC17 / RFU, NOM1 / Fold change vs veh, NOM1 / RFU, ARL8B / Fold change vs veh, ARL8B / RFU, ZBTB11 / Fold change vs veh, ZBTB11 / RFU, TAMM41 / Fold change vs veh, TAMM41 / RFU, KIAA1704 /// LOC100996395 / Fold change vs veh, KIAA1704 /// LOC100996395 / RFU, ING1 / Fold change vs veh, ING1 / RFU, TRMT61B / Fold change vs veh, TRMT61B / RFU, FUBP3 / Fold change vs veh, FUBP3 / RFU, TP53 / Fold change vs veh, TP53 / RFU, TNKS2 / Fold change vs veh, TNKS2 / RFU, ZFP14 / Fold change vs veh, ZFP14 / RFU, ACTR2 / Fold change vs veh, ACTR2 / RFU, PPP3R1 / Fold change vs veh, PPP3R1 / RFU, PIK3R1 / Fold change vs veh, PIK3R1 / RFU, HNRNPA1 / Fold change vs veh, HNRNPA1 / RFU, RNF170 / Fold change vs veh, RNF170 / RFU, ZNF28 / Fold change vs veh, ZNF28 / RFU, RNGTT / Fold change vs veh, RNGTT / RFU, OGT / Fold change vs veh, OGT / RFU, BRD1 / Fold change vs veh, BRD1 / RFU, MARS / Fold change vs veh, MARS / RFU, ZNF655 / Fold change vs veh, ZNF655 / RFU, FAHD1 / Fold change vs veh, FAHD1 / RFU, BDP1 / Fold change vs veh, BDP1 / RFU, LRRCC1 / Fold change vs veh, LRRCC1 / RFU, ARID1A / Fold change vs veh, ARID1A / RFU, ZNF146 / Fold change vs veh, ZNF146 / RFU, ZNF330 / Fold change vs veh, ZNF330 / RFU, GPN3 / Fold change vs veh, GPN3 / RFU, C9orf123 / Fold change vs veh, C9orf123 / RFU, N4BP2L2 / Fold change vs veh, N4BP2L2 / RFU, ARFIP1 / Fold change vs veh, ARFIP1 / RFU, FAM179B / Fold change vs veh, FAM179B / RFU, BCL10 / Fold change vs veh, BCL10 / RFU, UHRF1BP1L / Fold change vs veh, UHRF1BP1L / RFU, BET1 / Fold change vs veh, BET1 / RFU, CNOT2 / Fold change vs veh, CNOT2 / RFU, ZNF268 / Fold change vs veh, ZNF268 / Fold change vs veh, ZNF507 / RFU, DGCR2 / Fold change vs veh, DGCR2 / RFU, WDSUB1 / Fold change vs veh, WDSUB1 / Fold change vs veh, HSP90B1 /// MIR3652 / RFU, ADSS / Fold change vs veh, ADSS / RFU, GK / Fold change vs veh, GK / RFU, ZNF148 / Fold change vs veh, ZNF148 / RFU, TAF9 / Fold change vs veh, TAF9 / RFU, SLC1A5 / Fold change vs veh, SLC1A5 / RFU, SLMO2 / Fold change vs veh, SLMO2 / RFU, ABCC4 / Fold change vs veh, ABCC4 / RFU, LOC101060439 /// RAP1B / Fold change vs veh, LOC101060439 /// RAP1B / RFU, RFX7 / Fold change vs veh, RFX7 / RFU, GTPBP10 / Fold change vs veh, GTPBP10 / RFU, CNEP1R1 / Fold change vs veh, CNEP1R1 / RFU, BIVM-ERCC5 /// ERCC5 / Fold change vs veh, BIVM-ERCC5 /// ERCC5 / RFU, ILF3 / Fold change vs veh, ILF3 / RFU 11762660_at / Fold change /veh 11762660_at / RFU VCAN (11757783_s_at) / Fold change /veh VCAN (11757783_s_at) / RFU DDX43 (11728927_at) / Fold change /veh DDX43 (11728927_at) / RFU KRT8 (11758188_x_at) / Fold change /veh KRT8 (11758188_x_at) / RFU NKD1 (11759106_at) / Fold change /veh NKD1 (11759106_at) / RFU SRD5A1 (11742802_a_at) / Fold change /veh SRD5A1 (11742802_a_at) / RFU TPSAB1 /// TPSB2 (11721975_s_at) / Fold change /veh TPSAB1 /// TPSB2 (11721975_s_at) / RFU GSTM3 (11746129_a_at) / Fold change /veh GSTM3 (11746129_a_at) / RFU IL23R (11737362_x_at) / Fold change /veh IL23R (11737362_x_at) / RFU TMEM51 (11727254_a_at) / Fold change /veh TMEM51 (11727254_a_at) / RFU PIWIL2 (11732686_x_at) / Fold change /veh PIWIL2 (11732686_x_at) / RFU ORM1 (11744905_x_at) / Fold change /veh ORM1 (11744905_x_at) / RFU CCDC152 (11743942_at) / Fold change /veh CCDC152 (11743942_at) / RFU ECM1 (11717891_a_at) / Fold change /veh ECM1 (11717891_a_at) / RFU IL23R (11748794_a_at) / Fold change /veh IL23R (11748794_a_at) / RFU TNFAIP8L3 (11732012_x_at) / Fold change /veh TNFAIP8L3 (11732012_x_at) / RFU MBOAT4 (11741988_at) / Fold change /veh MBOAT4 (11741988_at) / RFU 11764193_at / Fold change /veh 11764193_at / RFU TMEM53 (11763286_at) / Fold change /veh TMEM53 (11763286_at) / RFU MAGEB2 (11727129_at) / Fold change /veh MAGEB2 (11727129_at) / RFU TMEM200A (11744735_a_at) / Fold change /veh TMEM200A (11744735_a_at) / RFU CCDC152 (11751479_a_at) / Fold change /veh CCDC152 (11751479_a_at) / RFU FAM211A (11726209_a_at) / Fold change /veh FAM211A (11726209_a_at) / RFU RGS16 (11746705_a_at) / Fold change /veh RGS16 (11746705_a_at) / RFU VCAN (11755009_s_at) / Fold change /veh VCAN (11755009_s_at) / RFU RHOB (11743442_s_at) / Fold change /veh RHOB (11743442_s_at) / RFU RGS16 (11720943_a_at) / Fold change /veh RGS16 (11720943_a_at) / RFU RGS16 (11720944_at) / Fold change /veh RGS16 (11720944_at) / RFU, VPS4B / Fold change vs veh, VPS4B / RFU, CREB1 / Fold change vs veh, CREB1 / RFU, DNAJC13 / Fold change vs veh, DNAJC13 / RFU, GNAQ / Fold change vs veh, GNAQ / RFU, CDK5R1 / Fold change vs veh, CDK5R1 / RFU, ZRANB3 / Fold change vs veh, ZRANB3 / RFU, CUL4A / Fold change vs veh, CUL4A / RFU, CCNY / Fold change vs veh, CCNY / RFU, UFL1 / Fold change vs veh, UFL1 / RFU, COG3 / Fold change vs veh, COG3 / RFU, DIAPH2 / Fold change vs veh, DIAPH2 / RFU, SKA2 / Fold change vs veh, SKA2 / RFU, AFF3 / Fold change vs veh, AFF3 / RFU, LMF1 / Fold change vs veh, LMF1 / RFU, IPO11 / Fold change vs veh, IPO11 / RFU, DFFB / Fold change vs veh, DFFB / RFU, FOXP1 / Fold change vs veh, FOXP1 / RFU, CARD8 / Fold change vs veh, CARD8 / RFU, STRN3 / Fold change vs veh, STRN3 / RFU, ADK / Fold change vs veh, ADK / RFU, RASSF2 / Fold change vs veh, RASSF2 / RFU, WIPF1 / Fold change vs veh, WIPF1 / RFU, LARP1B / Fold change vs veh, LARP1B / RFU, RASA1 / Fold change vs veh, RASA1 / RFU, RB1 / Fold change vs veh, RB1 / RFU, PPFIA1 / Fold change vs veh, PPFIA1 / RFU, MAT2A / Fold change vs veh, MAT2A / RFU, CCT5 / Fold change vs veh, CCT5 / RFU, WDR92 / Fold change vs veh, WDR92 / RFU, CUX1 / Fold change vs veh, CUX1 / RFU, TTC7A / Fold change vs veh, TTC7A / RFU, TMEM135 / Fold change vs veh, TMEM135 / RFU, DEPTOR / Fold change vs veh, DEPTOR / RFU, CPM / Fold change vs veh, CPM / RFU, DNAJB6 / Fold change vs veh, DNAJB6 / RFU, CACNA2D3 / Fold change vs veh, CACNA2D3 / RFU, DTX4 / Fold change vs veh, DTX4 / RFU, TFCP2 / Fold change vs veh, TFCP2 / RFU, GMCL1 /// GMCL1P1 / Fold change vs veh, GMCL1 /// GMCL1P1 / RFU, AEBP2 / Fold change vs veh, AEBP2 / RFU, SNHG1 /// SNORD22 /// SNORD25 /// SNORD26 /// SNORD27 /// SNORD28 /// SNORD29 /// SNORD31 / Fold change vs veh, SNHG1 /// SNORD22 /// SNORD25 /// SNORD26 /// SNORD27 /// SNORD28 /// SNORD29 /// SNORD31 / Fold change (Aza/veh), C12orf56 (ProbeSet 11735607_a_at) / Fold change (ACY-1035/veh), C12orf56 (ProbeSet 11735607_a_at) / Fold change (Aza/veh), FGFR1OP (ProbeSet 11751329_s_at) / Fold change (ACY-1035/veh), FGFR1OP (ProbeSet 11751329_s_at) / Fold change (Aza/veh), VPS36 (ProbeSet 11739960_a_at) / Fold change (ACY-1035/veh), VPS36 (ProbeSet 11739960_a_at) / RFU SYPL1 (11715823_x_at) / Fold change /veh SYPL1 (11715823_x_at) / RFU IGFBP7 (11715501_s_at) / Fold change /veh IGFBP7 (11715501_s_at) / RFU REEP3 (11722064_at) / Fold change /veh REEP3 (11722064_at) / RFU IGLL1 (11728026_x_at) / Fold change /veh IGLL1 (11728026_x_at): dose or concentration left out as unconfirmed
Conditions: MV-4-11 cells, 48 hours

Nc1ccc(-c2cccs2)cc1NC(=O)c1ccc2c(c1)cc(C1CC1)n2CCN1CCOCC1 [ACY-1035]
Fold change /veh LRRC4B (11730491_at): 1.07
